Measured values from article PMC7681098 (Theranostics, 2021).
Where two headings read alike, the source gives them in different places.

Assays:
ERK1 = target: T1, ERK1 (Homo sapiens, UniProt P27361); assay: Kinase inhibition assay (Reaction Biology); assay type: biochemical
T1 construct: purchased Reaction Biology Corporation (PA, USA)

FLT3 (D835Y) = target: T2, FLT3 (D835Y) (Homo sapiens, UniProt P36888, D835Y); assay: Kinase inhibition assay (Reaction Biology); assay type: biochemical
T2 construct: purchased Reaction Biology Corporation (PA, USA)

[1] = test system: BaF3 cells with FLT3-D835Y; assay: Cell viability of transformed BaF3 cells; assay type: cell-based, murine; details: Mus musculus, read-out: BaF3 cells with FLT3 mutants IC50 D835Y
Experimental: (§1) Lentivirus packaging and construction of transformed BaF3 cells were performed as described previously. […] Supernatants were collected and used to infect BaF3 cells, and transduced BaF3 cells were selected with puromycin (1 μg/ml) to obtain stably transformed cells.
(§2) The conditional medium (CM) was prepared from the supernatant of HS-5 cell culture for 5 days under normal culture conditions. At the indicated time point, cell viability was evaluated by MTT assay.

[2] = test system: BaF3 cells with FLT3-ITD/D835Y; assay: Cell viability of transformed BaF3 cells; assay type: cell-based, murine
Experimental: as §1, §2

[3] = test system: BaF3 cells with FLT3-ITD/F691L; assay: Cell viability of transformed BaF3 cells; assay type: cell-based, murine; details: Mus musculus, read-out: BaF3 cells with FLT3 mutants IC50 ITD-F691L
Experimental: as §1, §2

[4] = test system: BaF3 cells with FLT3-ITD/N676D; assay: Cell viability of transformed BaF3 cells; assay type: cell-based, murine; details: Mus musculus, read-out: BaF3 cells with FLT3 mutants IC50 ITD-N676D
Experimental: as §1, §2

[5] = test system: BaF3 cells with FLT3-ITD/Y842C; assay: Cell viability of transformed BaF3 cells; assay type: cell-based, murine; details: Mus musculus, read-out: BaF3 cells with FLT3 mutants IC50 ITD-Y842C
Experimental: as §1, §2

BaF3 cells with FLT3-ITD = assay: Cell viability of transformed BaF3 cells; assay type: cell-based, murine; details: Mus musculus, read-out: BaF3 cells with FLT3 mutants IC50 ITD
Experimental: as §1, §2

PK study in mice = assay type: in vivo, BALB/c mice; details: for MRT last: read-out: MRT(0-t); for MRT inf: read-out: MRT(0-∞); for concentration at 12 h: read-out: plasma concentration 12 h after administration; for half-life: read-out: apparent plasma half-life (t1/2z) (converted)
Experimental: After dosing, blood samples were collected at indicated time points (15 min, 30 min, 45 min, 60 min, 90 min, 2 h, 4 h, 6 h, 8 h, 12 h, 24 h). Blood samples from each group were collected at each time point and the supernatant was collected and used for HPLC/LC-MAS analysis.
Then, plasma levels of LT-171-861 were measured at each indicated time point. […] This inhibition efficacy lasted for 24 h, in accordance with the results of the PK experiment.

[6] = test system: bone marrow mononuclear cells (BMMCs); assay: Apoptosis assay in normal bone marrow mononuclear cells; assay type: cell-based, C57BL/6 mice; details: 36 h
Experimental: Blue square and solid line represent intravenous injection administration. […] Mice were sacrificed at indicated time points and then tumor tissues were dissected and lysed. Phosphorylation levels of FLT3, STAT5 and ERK1/2 were measured by western blotting. (C) Bone marrow mononuclear cells (BMMCs) were isolated from healthy C57BL/6 mice. […] Apoptosis assays were conducted after 36-hour incubation. […] 24 h after the last administration, c-Kit^+ cells were evaluated by flow cytometry. […] Data were shown with mean±SD.
Then, we evaluated progenitor cell (c-Kit^+) lineages of bone marrow cells (Figure 4D), spleen or liver weights (Figure S2A), relative body weights (Figure S2B), and parameters of blood routine examination (Figure S2C).

[7] = test system: MV4-11 cells and MOLM13 cells; assay: Subcutaneous xenograft model; assay type: in vivo, BALB/c nude mice
Experimental: According to previously described, [31], BALB/c nude mice were subcutaneously inoculated with MV4-11 cells (5×10^6) and MOLM13 cells (5×10^6). […] Tumor volume and body weight were measured with the caliper twice weekly. Tumor volumes were calculated based on: tumor volume=length×width^2/2.
LT-171-861 was administered every two days in xenograft mice. […] Tumor-eliminated mice were monitored for an additional 20 days after dosing was halted.
(§3) Data were shown as mean±SD. […] Data were shown as mean±SD. (C) An engrafted tumor model was used to evaluate in vivo antitumor activity. The NOD/SCID mice were intravenously inoculated with MV4-11 cells. […] Log-rank testing was used to compare survival curves among treatment groups. […] (D) Apoptotic assays in engraft model were evaluated by TUNEL assay and cell proliferative activity was measured by Ki67 assay. Images were acquired at ×40 magnification. (E) BALB/c nude mice were subcutaneously inoculated with MV4-11 cells (5×10^6) and bodyweight of each mouse was recorded every other day. (F) Representative photo of tumors from BALB/c nude mice which were inoculated with MV4-11 cells. (G) BALB/c nude mice were subcutaneously inoculated with BaF3 cells bearing FLT3-ITD-N676D (n=6) and FLT3-ITD-F691L (n=6) respectively. […] (H) BALB/c mice were intravenously inoculated with cells used in (G). […] Log-rank testing was used to compare survival curves among treatment groups. […] (I) Representative photos of spleens dissected from mice in (H) inoculated with BaF3 cells bearing FLT-3-ITD-F691L.

[8] = test system: BaF3-transfected cells (FLT3-ITD-N676D, FLT3-ITD-F691L); assay: Intravenous implantation of BaF3-transfected cells, survival; assay type: in vivo, BALB/c nude mice; details: 10 mg/kg once every other day, 8 cycles
Experimental: as §3
Cells were injected into the tail vein of BALB/c nude mice and allowed to engraft for 5 days. […] This schedule was repeated for 8 cycles.

[9] = test system: AML patient blasts expressing FLT3-ITD; assay: Viability of AML patient blasts (MTT); assay type: cell-based, human; details: 72 h, compared with AC220 and sorafenib
[10] = female, BALB/c, mouse, plasma, 10 mg/kg, IV
[11] = female, BALB/c, mouse, plasma, po, 10 mg/kg, IG

T1 sequence (P27361 whole entry): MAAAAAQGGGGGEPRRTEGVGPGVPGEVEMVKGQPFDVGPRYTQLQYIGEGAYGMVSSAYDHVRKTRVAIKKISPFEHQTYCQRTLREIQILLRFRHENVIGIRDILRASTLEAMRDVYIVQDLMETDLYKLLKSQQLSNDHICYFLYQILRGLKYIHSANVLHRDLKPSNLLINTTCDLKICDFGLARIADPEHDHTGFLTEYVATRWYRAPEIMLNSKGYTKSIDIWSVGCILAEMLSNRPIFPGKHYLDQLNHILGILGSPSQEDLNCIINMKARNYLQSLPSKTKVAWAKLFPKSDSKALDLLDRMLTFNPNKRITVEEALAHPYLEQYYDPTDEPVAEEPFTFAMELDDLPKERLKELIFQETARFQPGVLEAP

## CN1CCN(Cc2ccc(NC(=O)c3n[nH]cc3Nc3ncnc4[nH]ccc34)cc2)CC1 [LT-171-861]
ERK1
  IC50: > 200 nM
ERK1; 10 μM ATP, 10-dose IC50 mode
  IC50: 1060 nM
FLT3 (D835Y)
  IC50: < 1 nM
FLT3 (D835Y); 10 μM ATP, 10-dose IC50 mode
  IC50: 0.132 nM
[1]
  IC50: 23.3 nM
[2]; BaF3 FLT3-ITD-D835Y
  IC50 lower than that of sorafenib in cells bearing ITD-D835Y mutations: ~16 fold
[2]; Mus musculus, BaF3, cell viability, read-out: BaF3 cells with FLT3 mutants IC50 ITD-D835Y
  IC50: 57.2 nM
[3]
  IC50: 7.65 nM
[4]
  IC50: 47.5 nM
[5]
  IC50: 18.8 nM
BaF3 cells with FLT3-ITD
  IC50: 4.1 nM
PK study in mice; 10 mg/kg, IG
  CLz: 314.0953 mL/min/kg
  Vz: 100.1863 L/kg
PK study in mice; [10]
  AUC(0-inf): 3380 ng·h/mL
  AUC(0-t): 3310 ng·h/mL
  MRT last: 1.86 h
  MRT inf: 2.1 h
PK study in mice; female, BALB/c, mouse, plasma, 10 mg/kg, IV, read-out: CLz (converted)
  clearance: 49.3 mL/min/kg
PK study in mice; female, BALB/c, mouse, plasma, 10 mg/kg, IV, read-out: Vz
  Vd: 8.61 L/kg
PK study in mice; female, BALB/c, mouse, plasma, 10 mg/kg, intravenous injection (IV)
  Cmax: 2170 ng/mL
PK study in mice; female, BALB/c, mouse, plasma, 10 mg/kg, oral administration
  Cmax: 200 nM
PK study in mice; female, BALB/c, mouse, plasma, 10 mg/kg, oral administration (IG)
  Cmax: 88 ng/mL
PK study in mice; female, BALB/c, mouse, plasma, intravenous, 10 mg/kg, i.v
  concentration at 12 h: 50.1 nM
PK study in mice; female, BALB/c, mouse, plasma, iv, 10 mg/kg, intravenous (tail) injection (IV)
  half-life: 2.02 h
PK study in mice; female, BALB/c, mouse, plasma, oral versus intravenous at 10 mg/kg
  bioavailability: ~15%
PK study in mice; female, BALB/c, mouse, plasma, oral, 10 mg/kg, p.o
  concentration at 12 h: 30 nM
PK study in mice; [11]
  AUC(0-inf): 531 ng·h/mL
  AUC(0-t): 463 ng·h/mL
  MRT last: 4.28 h
  MRT inf: 5.95 h
PK study in mice; female, BALB/c, mouse, plasma, po, 10 mg/kg, oral administration (IG), read-out: Tmax (time to maximum plasma level)
  Tmax: 1 h
PK study in mice; female, BALB/c, mouse, plasma, po, 10 mg/kg, oral administration (IG)
  half-life: 3.68 h
[6]
  toxicity in normal BMMCs: hypotoxicity
[7]; 10 mg/kg intravenous every two days, 20 or 24-day treatment
  tumor growth in xenograft models: complete tumor regression was achieved
[7]; MV4-11 cell line xenograft model
  bodyweight during dosing: no significant weight suppression
[7]; MV4-11 cell line xenograft model, end of experiment
  H&E staining in liver, heart, spleen, lung and kidney: no significant damage
[7]; monitored for an additional 20 days
  tumor regrowth after dosing was halted: No tumor regrowth was observed
[8]
  survival versus vehicle: significant survival advantage
[9]
  antileukemic activity in blasts with FLT3-ITD mutations: comparable antileukemic activity
